Laboratory results published in patent US10611740B2, “Aryl dihydro-2H-benzo[b][1,4]oxazine sulfonamide and related compounds for use as agonists of RORγ and the treatment of disease” (Lycera Corporation, priority 2015, dated 2020).
pEC50: −log10 of the molar value.

Legend:
RORγ-LBD = target: T1, RORγ-LBD (Homo sapiens, UniProt P51449); experiment: RORγ-Ligand Binding Domain (LBD) TR-FRET Assay; assay type: biochemical;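 as to TR-FRET Assay Max Response: 665/615 nm ratio relative to signal without ursolic acid or compound set at 100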
T1 construct: made in house; host or cells: SF9 cells (baculovirus)
T1 sequence (P51449 269-508 limits assumed): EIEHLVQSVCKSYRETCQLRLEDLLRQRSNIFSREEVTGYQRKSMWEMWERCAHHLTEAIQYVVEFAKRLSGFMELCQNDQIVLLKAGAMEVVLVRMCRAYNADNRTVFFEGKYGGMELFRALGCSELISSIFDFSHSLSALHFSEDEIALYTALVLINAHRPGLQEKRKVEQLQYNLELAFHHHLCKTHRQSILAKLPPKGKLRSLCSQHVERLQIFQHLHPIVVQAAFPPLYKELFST
In short: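 TR-FRET read-out using a biotin-tagged SRC1 coactivator LXXLL peptide (200 nM final), with the antagonist ursolic acid present at 2 μM final. Receptor is His-tagged LBD expressed in SF9 cells, ~3 nM final in pH 7.0 Tris/KCl/EDTA/DTT/BSA buffer; compounds in 1% DMSO final.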

Gal4-RORγ-LBD = target: T2, Gal4-RORγ-LBD (Homo sapiens, UniProt P51449); experiment: Gal4-RORγ Luciferase Reporter Assay in HEK-293T Cells; assay type: cell-based; conditions: HEK-293 cells
T2 construct: expressed in transfected cells; host or cells: HEK-293 cells (pcDNA3.1neo plasmid)
T2 sequence (P51449 269-508 limits assumed): T1 sequence (P51449 269-508 limits assumed)
In short: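 Luminescence read-out (One-Glo, 10 min RT) after overnight compound exposure at 37 °C in HEK-293 cells carrying Gal4-RORγ-LBD plus a Gal4-luciferase reporter, in the presence of 2 μM ursolic acid. Max Response is the upper plateau from a 4-parameter logistic fit, normalized to untreated signal = 100.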

[1] = luciferase reporter, with 2 μM ursolic acid

Row | Compound | pEC50 (RORγ-LBD) | TR-FRET Assay Max Response (RORγ-LBD) | pEC50 (Gal4-RORγ-LBD; [1]) | Gal4-RORγ Assay Max Response (Gal4-RORγ-LBD; [1]) | pEC50 (Gal4-RORγ-LBD; 2 μM ursolic acid) | Gal4-RORγ Assay Max Response (Gal4-RORγ-LBD; 2 μM ursolic acid)
1 | O=C(NC[C@H]1CN(S(=O)(=O)c2cccc(C(F)(F)F)c2)c2cc(-c3cc(F)ccc3F)ccc2O1)C1COC1 [Compound 30Z, (S)-N-((6-(2,5-difluorophenyl)-4-((3-(trifluoromethyl)phenyl)-sulfonyl)-3,4-dihydro-2H-benzo[b][1,4]oxazin-2-yl)methyl)oxetane-3-carboxamide] | > 6.30 | **** (The symbol “****” indicates a value greater than 200) | > 6.30 | * (The symbol “*” indicates a value in the range of 25 to 90) |  | 
2 | CC(C)(C[C@H]1CN(S(=O)(=O)c2cccc(C(F)(F)F)c2)c2cc(-c3cc(F)ccc3F)ccc2O1)C(=O)O [Compound 31, (S)-3-(6-(2,5-difluorophenyl)-4-((3-(trifluoromethyl)phenyl)sulfonyl)-3,4-dihydro-2H-benzo[b][1,4]oxazin-2-yl)-2,2-dimethylpropanoic Acid] | > 6.30 | **** (The symbol “****” indicates a value greater than 200) | > 6.30 | ** (The symbol “**” indicates a value in the range of greater than 90 to 150) |  | 
3 | CC(C)(CC[C@H]1CN(S(=O)(=O)c2cccc(C(F)(F)F)c2)c2cc(-c3cc(F)ccc3F)ccc2O1)C(=O)O [Compound 32A, (S)-4-(6-(2,5-difluorophenyl)-4-((3-(trifluoromethyl)phenyl)-sulfonyl)-3,4-dihydro-2H-benzo[b][1,4]oxazin-2-yl)-2,2-dimethylbutanoic acid] | > 6.30 | **** (The symbol “****” indicates a value greater than 200) | > 6.30 | ** (The symbol “**” indicates a value in the range of greater than 90 to 150) |  | 
4 | CC(C)(C[C@H]1CN(S(=O)(=O)c2cccc(C(F)(F)F)c2)c2cc(-c3cccc(C(F)(F)F)c3Cl)ccc2O1)C(=O)O [Compound 32AA, (S)-3-(6-(2-chloro-3-(trifluoromethyl)phenyl)-4-((3-(trifluoromethyl)phenyl)sulfonyl)-3,4-dihydro-2H-benzo[b][1,4]-oxazin-2-yl)-2,2-dimethyl-propanoic acid] | > 6.30 | **** (The symbol “****” indicates a value greater than 200) |  |  | > 6.30 | ** (The symbol “**” indicates a value in the range of greater than 90 to 150)
5 | CC(C)(C[C@H]1CN(S(=O)(=O)c2cccc(C(F)(F)F)c2)c2cc(-c3cc(Cl)cc(C(F)(F)F)c3)ccc2O1)C(=O)O [Compound 32AB, (S)-3-(6-(3-chloro-5-(trifluoromethyl)phenyl)-4-((3-(trifluoromethyl)phenyl)sulfonyl)-3,4-dihydro-2H-benzo[b][1,4]oxazin-2-yl)-2,2-dimethylpropanoic acid] | > 6.30 | *** (The symbol “***” indicates a value in the range of greater than 150 to 200) |  |  | > 6.30 | ** (The symbol “**” indicates a value in the range of greater than 90 to 150)
6 | CC(C)(C[C@H]1CN(S(=O)(=O)c2cccc(C(F)(F)F)c2)c2cc(-c3cccc4c3OC(F)(F)O4)ccc2O1)C(=O)O [Compound 32AC, (S)-3-(6-(2,2-difluorobenzo[d]-[1,3]dioxol-4-yl)-4-((3-(trifluoro-methyl)phenyl)sulfonyl)-3,4-dihydro-2H-benzo[b][1,4]oxazin-2-yl)-2,2-dimethylpropanoic acid] | > 6.30 | *** (The symbol “***” indicates a value in the range of greater than 150 to 200) |  |  | > 6.30 | ** (The symbol “**” indicates a value in the range of greater than 90 to 150)
